Assay results: US10946074B2, “GLP-1 derivatives and uses thereof” (Novo Nordisk A/S, priority 2016, dated 2021)
Starred links: 1 amine or outer side, 2 acyl side, 3 side chain; linkers in the order of their positions; H or OH if unused. Residues, ends and D or L forms follow the SMILES beside them. Groups on a side chain read outwards from the residue. *: point of attachment. Undecanoyl(11-OPh(4-COOH)) = O=C(O)c1ccc(OCCCCCCCCCCC(=O)*)cc1; Decanoyl(10-O(3-COOH-Ph)) = O=C(O)c1cccc(OCCCCCCCCCC(=O)*)c1; γGlu = O=C(O)[C@H](CCC(=O)[*:2])N[*:1]; AEEA = NCCOCCOCC(=O)O

target: T1, human GLP-1 receptor (Homo sapiens, UniProt P43220); assay: GLP-1 receptor binding, competitive binding assay with 125I-GLP-1 on isolated membranes (SPA); conditions: GLP-1 receptor binding High HSA IC50 (nM), high HSA (2.0% (w/v) final assay concentration)
T1 construct: expressed in transfected cells; host or cells: membranes of BHK cells (parent BHKTS13), clone FCW467-12A
T1 sequence (P43220 24-463): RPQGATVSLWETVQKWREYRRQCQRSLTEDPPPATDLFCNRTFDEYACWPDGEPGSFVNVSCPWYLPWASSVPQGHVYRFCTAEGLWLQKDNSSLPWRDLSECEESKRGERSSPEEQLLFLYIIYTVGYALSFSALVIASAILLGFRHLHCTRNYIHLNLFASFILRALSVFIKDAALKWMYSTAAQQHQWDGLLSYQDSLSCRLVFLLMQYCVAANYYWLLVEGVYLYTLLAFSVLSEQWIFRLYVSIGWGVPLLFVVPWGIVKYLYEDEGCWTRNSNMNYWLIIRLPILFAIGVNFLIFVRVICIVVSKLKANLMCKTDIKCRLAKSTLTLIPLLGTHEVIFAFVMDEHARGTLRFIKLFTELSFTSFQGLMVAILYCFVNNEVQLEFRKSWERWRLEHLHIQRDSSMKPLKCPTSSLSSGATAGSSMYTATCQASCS
Description: The receptor binding is reported as the concentration at which half of the labelled ligand is displaced from the receptor, the IC50 value.
Buffer 1 consisted of 20 mM Na-HEPES plus 10 mM EDTA and pH was adjusted to 7.4. Buffer 2 consisted of 20 mM Na-HEPES plus 0.1 mM EDTA and pH was adjusted to 7.4. Assay buffer consisted of 50 mM HEPES supplemented with 5 mM EGTA, 5 mM MgCl2, 0.005% w/v Tween 20 and pH was adjusted to 7.4. An 8% albumin stock consisted of HSA dissolved at 8% (w/v) in assay buffer. An 0.02% albumin stock consisted of HSA dissolved at 0.02% (w/v) in assay buffer.
To make a membrane preparation the cells were grown to approximately 80% confluence. The cells were washed twice in phosphate-buffered saline and harvested. The cells were pelleted using a brief centrifugation and the cell pellet was kept on ice. The cell pellet was homogenised with ULTRA-THURRAX™ dispersing instrument for 20-30 seconds in a suitable amount of buffer 1 (e.g., 10 ml). The homogenate was centrifuged for 15 minutes. The pellet was re-suspended (homogenised) in 10 ml buffer 2 and centrifuged. This step was repeated once more. The resulting pellet was re-suspended in buffer 2 and the protein concentration was determined. The membranes were aliquoted and stored at minus 80° C.
For the receptor binding assay in the presence of low HSA (0.005% (w/v)) 50 μl of the assay buffer was added to each well of an assay plate. Assay continued with step 3.
For the receptor binding assay in the presence of high HSA (2% (w/v)) 50 μl of the 8% (w/v) albumin stock was added to each well of an assay plate. Assay continued with step 3.
Cell membrane aliquots were thawed and diluted to their working concentration. Fifty μl were added to each well in the assay plate.
WGA SPA beads were suspended in assay buffer at 20 mg/ml. The suspension was diluted to 10 mg/ml in assay buffer just prior to addition to the assay plate. Fifty μl were added to each well in the assay plate.
A 25 μl aliquot was reserved for measuring total counts/well.
The assay plate was incubated for 2 h at 30° C.
The assay plate was centrifuged for 10 min.
The assay plate was read in a Packard TopCount NXT instrument.
Individual replicates were analysed using non-linear regression in GraphPad Prism. IC50 values were calculated by the software and reported in nM. A minimum of two replicates was measured for each sample. The reported values are averages of all of the measured values for each compound.

Compound | IC50
CC[C@H](C)[C@H](NC(=O)[C@H](Cc1ccccc1)NC(=O)[C@H](CCC(=O)O)NC(=O)[C@H](CCCNC(=N)N)NC(=O)[C@H](C)NC(=O)[C@H](C)NC(=O)[C@H](CCC(N)=O)NC(=O)[C@H](CCC(=O)O)NC(=O)[C@H](CCC(=O)O)NC(=O)[C@H](CC(C)C)NC(=O)[C@H](Cc1ccc(O)cc1)NC(=O)[C@H](CO)NC(=O)[C@H](CO)NC(=O)[C@@H](NC(=O)[C@H](CC(=O)O)NC(=O)[C@H](CO)NC(=O)[C@@H](NC(=O)[C@H](Cc1ccccc1)NC(=O)[C@@H](NC(=O)CNC(=O)[C@H](CCC(=O)O)NC(=O)C(C)(C)NC(=O)[C@@H](N)Cc1c[nH]cn1)[C@@H](C)O)[C@@H](C)O)C(C)C)C(=O)N[C@@H](C)C(=O)N[C@@H](Cc1c[nH]c2ccccc12)C(=O)N[C@@H](CC(C)C)C(=O)N[C@H](C(=O)N[C@@H](CCCNC(=N)N)C(=O)NCC(=O)N[C@@H](CCCCNC(=O)COCCOCCNC(=O)COCCOCCNC(=O)CC[C@H](NC(=O)CCCCCCCCCCOc1ccc(C(=O)O)cc1)C(=O)O)C(=O)N[C@@H](CCCCNC(=O)COCCOCCNC(=O)COCCOCCNC(=O)CC[C@H](NC(=O)CCCCCCCCCCOc1ccc(C(=O)O)cc1)C(=O)O)C(=O)O)C(C)C [Comparative 8A] | 110 nM
CC[C@H](C)[C@H](NC(=O)[C@H](Cc1ccccc1)NC(=O)[C@H](CCC(=O)O)NC(=O)[C@H](CCCNC(=N)N)NC(=O)[C@H](C)NC(=O)[C@H](C)NC(=O)[C@H](CCC(N)=O)NC(=O)[C@H](CCC(=O)O)NC(=O)[C@H](CCC(=O)O)NC(=O)[C@H](CC(C)C)NC(=O)[C@H](Cc1ccc(O)cc1)NC(=O)[C@H](CO)NC(=O)[C@H](CO)NC(=O)[C@@H](NC(=O)[C@H](CC(=O)O)NC(=O)[C@H](CO)NC(=O)[C@@H](NC(=O)[C@H](Cc1ccccc1)NC(=O)[C@@H](NC(=O)CNC(=O)[C@H](CCC(=O)O)NC(=O)[C@H](Cc1c[nH]c2ccccc12)NC(=O)[C@@H](N)Cc1c[nH]cn1)[C@@H](C)O)[C@@H](C)O)C(C)C)C(=O)N[C@@H](C)C(=O)N[C@@H](Cc1c[nH]c2ccccc12)C(=O)N[C@@H](CC(C)C)C(=O)N[C@H](C(=O)N[C@@H](CCCNC(=N)N)C(=O)NCC(=O)N[C@@H](CCCCNC(=O)COCCOCCNC(=O)COCCOCCNC(=O)CC[C@H](NC(=O)CCCCCCCCCOc1cccc(C(=O)O)c1)C(=O)O)C(=O)N[C@@H](CCCCNC(=O)COCCOCCNC(=O)COCCOCCNC(=O)CC[C@H](NC(=O)CCCCCCCCCOc1cccc(C(=O)O)c1)C(=O)O)C(=O)O)C(C)C [Example 1, N{Epsilon-36}-[2-[2-[2-[[2-[2-[2-[[(4S)-4-carboxy-4-[10-(3-carboxyphenoxy)decanoylamino]butanoyl]amino]ethoxy]ethoxy]acetyl]amino]ethoxy]ethoxy]acetyl],N{Epsilon-37}-[2-[2-[2-[[2-[2-[2-[[(4S)-4-carboxy-4-[10-(3-carboxyphenoxy)decanoylamino]butanoyl]amino]ethoxy]ethoxy]acetyl]amino]ethoxy]ethoxy]acetyl]-[Trp8,Glu22,Arg26,Arg34,Lys36,Lys37]-GLP-1-(7-37)-peptide] (H-HWEGTFTSDVSSYLEEQAAREFIAWLVRGK([AEEA-AEEA-γGlu-Decanoyl(10-O(3-COOH-Ph))])K([AEEA-AEEA-γGlu-Decanoyl(10-O(3-COOH-Ph))])-OH) | 410 nM
CC[C@H](C)[C@H](NC(=O)[C@H](Cc1ccccc1)NC(=O)[C@H](CCC(=O)O)NC(=O)[C@H](CCCNC(=N)N)NC(=O)[C@H](C)NC(=O)[C@H](C)NC(=O)[C@H](CCC(N)=O)NC(=O)[C@H](CCC(=O)O)NC(=O)[C@H](CCC(=O)O)NC(=O)[C@H](CC(C)C)NC(=O)[C@H](Cc1ccc(O)cc1)NC(=O)[C@H](CO)NC(=O)[C@H](CO)NC(=O)[C@@H](NC(=O)[C@H](CC(=O)O)NC(=O)[C@H](CO)NC(=O)[C@@H](NC(=O)[C@H](Cc1ccccc1)NC(=O)[C@@H](NC(=O)CNC(=O)[C@H](CCC(=O)O)NC(=O)[C@H](Cc1c[nH]c2ccccc12)NC(=O)[C@@H](N)Cc1c[nH]cn1)[C@@H](C)O)[C@@H](C)O)C(C)C)C(=O)N[C@@H](C)C(=O)N[C@@H](Cc1c[nH]c2ccccc12)C(=O)N[C@@H](CC(C)C)C(=O)N[C@H](C(=O)N[C@@H](CCCNC(=N)N)C(=O)NCC(=O)N[C@@H](CCCCNC(=O)COCCOCCNC(=O)COCCOCCNC(=O)CC[C@H](NC(=O)CCCCCCCCCCOc1ccc(C(=O)O)cc1)C(=O)O)C(=O)N[C@@H](CCCCNC(=O)COCCOCCNC(=O)COCCOCCNC(=O)CC[C@H](NC(=O)CCCCCCCCCCOc1ccc(C(=O)O)cc1)C(=O)O)C(=O)O)C(C)C [Example 8, N{Epsilon-36}-[2-[2-[2-[[2-[2-[2-[[(4S)-4-carboxy-4-[11-(4-carboxyphenoxy)undecanoylamino]butanoyl]amino]ethoxy]ethoxy]acetyl]amino]ethoxy]ethoxy]acetyl],N{Epsilon-37}-[2-[2-[2-[[2-[2-[2-[[(4S)-4-carboxy-4-[11-(4-carboxyphenoxy)undecanoylamino]butanoyl]amino]ethoxy]ethoxy]acetyl]amino]ethoxy]ethoxy]acetyl]-[Trp8,Glu22,Arg26,Arg34,Lys36,Lys37]-GLP-1-(7-37)-peptide] (H-HWEGTFTSDVSSYLEEQAAREFIAWLVRGK([AEEA-AEEA-γGlu-Undecanoyl(11-OPh(4-COOH))])K([AEEA-AEEA-γGlu-Undecanoyl(11-OPh(4-COOH))])-OH; N-terminus and C-terminus assumed) | 170 nM

same assay, conditions: GLP-1 receptor binding Low HSA IC50 (nM), low HSA (max. 0.001% (w/v) final assay concentration)

Compound | IC50
CC[C@H](C)[C@H](NC(=O)[C@H](Cc1ccccc1)NC(=O)[C@H](CCC(=O)O)NC(=O)[C@H](CCCNC(=N)N)NC(=O)[C@H](C)NC(=O)[C@H](C)NC(=O)[C@H](CCC(N)=O)NC(=O)[C@H](CCC(=O)O)NC(=O)[C@H](CCC(=O)O)NC(=O)[C@H](CC(C)C)NC(=O)[C@H](Cc1ccc(O)cc1)NC(=O)[C@H](CO)NC(=O)[C@H](CO)NC(=O)[C@@H](NC(=O)[C@H](CC(=O)O)NC(=O)[C@H](CO)NC(=O)[C@@H](NC(=O)[C@H](Cc1ccccc1)NC(=O)[C@@H](NC(=O)CNC(=O)[C@H](CCC(=O)O)NC(=O)[C@H](Cc1c[nH]c2ccccc12)NC(=O)[C@@H](N)Cc1c[nH]cn1)[C@@H](C)O)[C@@H](C)O)C(C)C)C(=O)N[C@@H](C)C(=O)N[C@@H](Cc1c[nH]c2ccccc12)C(=O)N[C@@H](CC(C)C)C(=O)N[C@H](C(=O)N[C@@H](CCCNC(=N)N)C(=O)NCC(=O)N[C@@H](CCCNC(=N)N)C(=O)N[C@@H](CCCCNC(=O)COCCOCCNC(=O)COCCOCCNC(=O)CN(CCCNC(=O)COCCOCCNC(=O)COCCOCCNC(=O)COCCOCCNC(=O)COCCOCCNC(=O)CC[C@H](NC(=O)[C@H]1CC[C@H](CNC(=O)CCCCCCCCCCCCCCCCCCC(=O)O)CC1)C(=O)O)CCCNC(=O)COCCOCCNC(=O)COCCOCCNC(=O)COCCOCCNC(=O)COCCOCCNC(=O)CC[C@H](NC(=O)[C@H]1CC[C@H](CNC(=O)CCCCCCCCCCCCCCCCCCC(=O)O)CC1)C(=O)O)C(=O)O)C(C)C [Example 13] | 0.818 nM
CC[C@H](C)[C@H](NC(=O)[C@H](Cc1ccccc1)NC(=O)[C@H](CCC(=O)O)NC(=O)[C@H](CCCNC(=N)N)NC(=O)[C@H](C)NC(=O)[C@H](C)NC(=O)[C@H](CCC(N)=O)NC(=O)[C@H](CCC(=O)O)NC(=O)[C@H](CCC(=O)O)NC(=O)[C@H](CC(C)C)NC(=O)[C@H](Cc1ccc(O)cc1)NC(=O)[C@H](CO)NC(=O)[C@H](CO)NC(=O)[C@@H](NC(=O)[C@H](CC(=O)O)NC(=O)[C@H](CO)NC(=O)[C@@H](NC(=O)[C@H](Cc1ccccc1)NC(=O)[C@@H](NC(=O)CNC(=O)[C@H](CCC(=O)O)NC(=O)[C@H](Cc1c[nH]c2ccccc12)NC(=O)[C@@H](N)Cc1c[nH]cn1)[C@@H](C)O)[C@@H](C)O)C(C)C)C(=O)N[C@@H](C)C(=O)N[C@@H](Cc1c[nH]c2ccccc12)C(=O)N[C@@H](CC(C)C)C(=O)N[C@H](C(=O)N[C@@H](CCCNC(=N)N)C(=O)NCC(=O)N[C@@H](CCCNC(=N)N)C(=O)N[C@@H](CCCCNC(=O)COCCOCCNC(=O)COCCOCCNC(=O)[C@H](CCCCNC(=O)COCCOCCNC(=O)COCCOCCNC(=O)COCCOCCNC(=O)COCCOCCNC(=O)CC[C@H](NC(=O)[C@H]1CC[C@H](CNC(=O)CCCCCCCCCCCCCCCCCCC(=O)O)CC1)C(=O)O)NC(=O)COCCOCCNC(=O)COCCOCCNC(=O)COCCOCCNC(=O)COCCOCCNC(=O)CC[C@H](NC(=O)[C@H]1CC[C@H](CNC(=O)CCCCCCCCCCCCCCCCCCC(=O)O)CC1)C(=O)O)C(=O)O)C(C)C [Example 12] | 3.16 nM
CC[C@H](C)[C@H](NC(=O)[C@H](Cc1ccccc1)NC(=O)[C@H](CCC(=O)O)NC(=O)[C@H](CCCNC(=N)N)NC(=O)[C@H](C)NC(=O)[C@H](C)NC(=O)[C@H](CCC(N)=O)NC(=O)[C@H](CCC(=O)O)NC(=O)[C@H](CCC(=O)O)NC(=O)[C@H](CC(C)C)NC(=O)[C@H](Cc1ccc(O)cc1)NC(=O)[C@H](CO)NC(=O)[C@H](CO)NC(=O)[C@@H](NC(=O)[C@H](CC(=O)O)NC(=O)[C@H](CO)NC(=O)[C@@H](NC(=O)[C@H](Cc1ccccc1)NC(=O)[C@@H](NC(=O)CNC(=O)[C@H](CCC(=O)O)NC(=O)C(C)(C)NC(=O)[C@@H](N)Cc1c[nH]cn1)[C@@H](C)O)[C@@H](C)O)C(C)C)C(=O)N[C@@H](C)C(=O)N[C@@H](Cc1c[nH]c2ccccc12)C(=O)N[C@@H](CC(C)C)C(=O)N[C@H](C(=O)N[C@@H](CCCNC(=N)N)C(=O)NCC(=O)N[C@@H](CCCCNC(=O)COCCOCCNC(=O)COCCOCCNC(=O)CC[C@H](NC(=O)CCCCCCCCCCOc1ccc(C(=O)O)cc1)C(=O)O)C(=O)N[C@@H](CCCCNC(=O)COCCOCCNC(=O)COCCOCCNC(=O)CC[C@H](NC(=O)CCCCCCCCCCOc1ccc(C(=O)O)cc1)C(=O)O)C(=O)O)C(C)C [Comparative 8A] | 0.245 nM
